# Results: ChEMBL document CHEMBL2040829, “Highly regioselective synthesis of N-3 organophosphorous derivatives of 3,4-dihydropyrimidin-2(1H)-ones and their calcium channel binding studies” (Eur J Med Chem, 2012)
# pIC50: −log10 of the molar value.
# Test: Inhibition of calcium channel in pig carotid artery assessed as relaxation of KCl-induced vascular smooth muscle contraction
smiles,measurement,value
COC(=O)C1=C(C)NC(C)=C(C(=O)OC)C1c1ccccc1[N+](=O)[O-] [NIFEDIPINE],pIC50,8.00
